One may read the LogP as the decadic logarithm of the partition coefficient of the neutral form, usually between octanol and water. The low end stands for a more hydrophilic compound, the high end for a more lipophilic compound.

For series [1], the system named is Phytophthora infestans. The class given is in vivo. The settings on record: tomato plants, spray, 500 ppm, grading 5 days after contamination.
Series [2] deals with Plasmopara viticola. Nature of the series: Plasmopara test (grapevines)/preventive. The following applies: preventive spray, 10 ppm of active ingredient, evaluated 6 days after inoculation. The class given is in vivo. How it is done: Solvent: 24.5 parts by weight of acetone • 24.5 parts by weight of dimethylacetamide
Emulsifier: 1 part by weight of alkylaryl polyglycol ether
To produce a suitable preparation of active compound, 1 part by weight of active compound is mixed with the stated amounts of solvent and emulsifier, and the concentrate is diluted with water to the desired concentration.
To test for preventive activity, young plants are sprayed with the preparation of active compound at the stated rate of application. After the spray coating has dried on, the plants are inoculated with an aqueous spore suspension of Plasmopara viticola and then remain for 1 day in an incubation cabinet at approximately 20° C. and a relative atmospheric humidity of 100%. The plant is subsequently placed for 4 days in a greenhouse at approximately 21° C. and a relative atmospheric humidity of approximately 90%. The plants are then misted and placed for 1 day in an incubation cabinet.
The test is evaluated 6 days after the inoculation. 0% means an efficacy which corresponds to that of the untreated control, while an efficacy of 100% means that no disease is observed.

For series [3] the following is noted: pH 2.7.

Marks after values point to notes of the source that are not given here.

As for `COc1cccc(OC(C)C(=O)Nc2nc(CO/N=C(/c3ccccc3)c3noc(=O)n3C)cs2)c1` (stereo not shown) [Example 50], the Eff. % in series [1] is 94%; in series [2], 95%. Also, in series [3], the LogP is 3.71 [a].

The molecule `COc1cccc(OCC(=O)Nc2cccc(CO/N=C(/c3ccccc3)c3noc(=O)n3C)n2)c1` [Example 51] displayed an Eff. % in series [2] of 91%. Also, the LogP in series [3] was 3.73 [a].

`Cn1c(/C(=N\OCc2cccc(NC(=O)c3ccccc3)n2)c2ccccc2)noc1=O` [Example 54]: the figures for the Eff. % in series [1] and in series [2] were 100% and 93%, respectively. For the same molecule, the LogP in series [3] is 3.51 [a].

Consider `Cn1c(/C(=N\OCc2cccc(NC(=O)CCC(C)(C)C)n2)c2ccccc2)noc1=O` [Example 59], for which the Eff. % in series [1] came to 100%; in series [2], 98%. For the same molecule, in series [3], the LogP was 4.15 [a].

As for `CC(OC(=O)Nc1cccc(CO/N=C(/c2ccccc2)c2noc(=O)n2C)n1)c1ccccc1` (stereo not shown) [Example 68], the Eff. % in series [1] worked out at 100%; in series [2] it was 90%. For the same molecule, the LogP in series [3] is 4.23 [a].

As for `Cc1cccc(OC(C)C(=O)Nc2nc(CO/N=C(/c3ccccc3)c3noc(=O)n3C)cs2)c1` (stereo not shown) [Example 80], the Eff. % in series [1] and in series [2] was 98% in each case. Also, the LogP in series [3] is 3.99 [a].

Take `Cn1c(/C(=N\OCc2cccc(NC(=O)C3Cc4ccccc4CO3)n2)c2ccccc2)noc1=O` (stereo not shown) [Example 85]: the figures for the Eff. % in series [1] and in series [2] were 99% and 73%, respectively. In series [3], the log partition coefficient (LogP) was 4.17 [a].

`Cn1c(/C(=N\OCc2csc(NC(=O)COc3cccc(F)c3)n2)c2ccccc2)noc1=O` [Example 100] registered an Eff. % in series [2] of 74%. For the same molecule, in series [3], the LogP was 3.58 [a].

For `CC(C)CCC(=O)Nc1cccc(CO/N=C(/c2ccccc2)c2noc(=O)n2C)n1` [Example 102], the Eff. % in series [1] stood at 100%; in series [2], 91%. Besides, the LogP in series [3] is 3.85 [a].

For `Cn1c(C(=NOCc2cccc(NCC3CCCCC3)n2)c2ccccc2)noc1=O` [Example 116], in series [2], the Eff. % worked out at 93%. Further, the LogP in series [3] is 3.02 [a].

`CCn1c(/C(=N\OCc2cccc(NC(=O)OC(C)(C)C)n2)c2ccccc2)noc1=O` [Example 152]: the Eff. % in series [1] was determined as 95%; in series [2], 70%. Moreover, the log partition coefficient (LogP) in series [3] was 4.26 [a].

As for `Cn1c(/C(=N\OCc2cccc(NC(=O)CCC3(C)CC3)n2)c2ccccc2)noc1=O` [Example 166], the values for the Eff. % in series [1] and in series [2] were 99% and 95%, respectively. Further, the LogP in series [3] is 3.87 [a].

For `Cn1c(/C(=N\OCc2csc(NC(=O)COC3CCCC3)n2)c2ccccc2)noc1=O` [Example 195], the Eff. % in series [2] is 95%. Besides, the LogP in series [3] was 3.73 [a].

Regarding `Cn1c(/C(=N\OCc2cccc(NC(=O)CC3CCCCC3)n2)c2ccccc2)noc1=O` [Example 208], the results for the Eff. % in series [1] and in series [2] were 100% and 91%, respectively. In series [3], the LogP is 4.26 [a].

In the case of `CCCCOCC(=O)Nc1cccc(CO/N=C(/c2ccccc2)c2noc(=O)n2C)n1` [Example 240], the Eff. % is listed as 100% in series [1] and 80% in series [2]. For the same molecule, the LogP in series [3] is 3.97 [a].

Regarding `CCCCC(C)C(=O)Nc1cccc(CON=C(c2ccccc2)c2noc(=O)n2C)n1` (stereo not shown) [Example 244], the Eff. % is on record as 99% in series [1] and 86% in series [2]. The LogP in series [3] was 4.2 [a].

As for `Cn1c(C(=NOCc2cccc(NC(=O)c3ccc(Cl)cc3)n2)c2ccccc2)noc1=O` [Example 245], the Eff. % in series [2] amounted to 93%. Further, the LogP in series [3] is 4.01 [a].

With `Cn1c(/C(=N\OCc2cccc(NC(=O)c3cccc(I)c3)n2)c2ccccc2)noc1=O` [Example 281], the Eff. % in series [1] and in series [2] was 97% each time. Further, the LogP in series [3] was 4.31 [a].

With `CCCCC(CC)C(=O)Nc1cccc(CO/N=C(/c2ccccc2)c2noc(=O)n2C)n1` (stereo not shown) [Example 284], the Eff. % in series [1] was 95%; in series [2], 79%. Also, the LogP in series [3] was 4.49 [a].

Turning to `CC1c2ccccc2COC1C(=O)Nc1cccc(CO/N=C(/c2ccccc2)c2noc(=O)n2C)n1` (stereo not shown) [Example 291], the Eff. % in series [1] came out at 100%; in series [2], 77%. Besides, the LogP in series [3] was 4.35 [a].

In series [2], `Cc1ccc(OCC(=O)Nc2cccc(CO/N=C(/c3ccccc3)c3noc(=O)n3C)n2)cc1` [Example 296] gave an Eff. % of 74%. Further, the LogP in series [3] was 4.07 [a].

Take `C#CCCCC(=O)Nc1cccc(CO/N=C(/c2ccccc2)c2noc(=O)n2C)n1` [Example 302]: the Eff. % in series [1] is listed as 100%; in series [2] it was 92%. The LogP in series [3] was 3.17 [a].

In turn, `Cn1c(/C(=N\OCc2cccc(NC(=O)C(F)(F)Oc3ccccc3)n2)c2ccccc2)noc1=O` [Example 307] displayed an Eff. % in series [2] of 98%. Also, in series [3], the LogP is 4.08 [a].

Consider `Cc1ccc(OC(C)C(=O)Nc2nc(CO/N=C(/c3ccccc3)c3noc(=O)n3C)cs2)cc1` (stereo not shown) [Example 312], for which the figures for the Eff. % in series [1] and in series [2] were 94% and 95%, respectively. The LogP in series [3] is 4.02 [a].

The molecule `CCCCC(C)(C)C(=O)Nc1cccc(CO/N=C(/c2ccccc2)c2noc(=O)n2C)n1` [Example 316] registered an Eff. % in series [2] of 84%. Also, in series [3], the LogP was 4.63 [a].

In series [1], `Cn1c(/C(=N\OCc2cccc(NC(=O)CCc3ccc(Cl)cc3)n2)c2ccccc2)noc1=O` [Example 346] displayed an Eff. % of 97%. The LogP in series [3] is 4.17 [a].

In turn, `Cn1c(/C(=N\OCc2cccc(NC(=O)C(F)(F)C(F)(F)C(F)(F)F)n2)c2ccccc2)noc1=O` [Example 348] came in with an Eff. % in series [1] of 100%. Besides, in series [3], the LogP was 4.17 [a].

For the molecule `CCC(C)COC(=O)Nc1cccc(CO/N=C(/c2ccccc2)c2noc(=O)n2C)n1` (stereo not shown) [Example 350], the Eff. % in series [1] is 98%. Further, the LogP in series [3] was 4.44 [a].

`Cn1c(/C(=N\OCc2cccc(NC(=O)c3ccc(Oc4ccccc4)cc3)n2)c2ccccc2)noc1=O` [Example 357] returned an Eff. % in series [1] of 92%. Further, the LogP in series [3] is 4.58 [a].

`CCCCC(=O)Nc1cccc(CO/N=C(/c2cccc(OC)c2)c2noc(=O)n2C)n1` [Example 358]: the Eff. % in series [1] stood at 100%. The LogP in series [3] was 3.55 [a].

`CCCCOC(=O)Nc1cccc(CO/N=C(/c2cccc(OC)c2)c2noc(=O)n2C)n1` [Example 361]: the Eff. % in series [1] turned out to be 90%. Besides, the lipophilicity (LogP) in series [3] was 4.06 [a].

Regarding `COc1cccc(/C(=N/OCc2cccc(NC(=O)CC(C)C)n2)c2noc(=O)n2C)c1` [Example 362], the Eff. % in series [1] is reported as 71%. In addition, the lipophilicity (LogP) in series [3] is 3.46 [a].

Consider `C=CCCOC(=O)Nc1cccc(CO/N=C(/c2ccccc2)c2noc(=O)n2C)n1` [Example 363], for which the Eff. % in series [1] came out at 99%. For the same molecule, the LogP in series [3] is 3.71 [a].

In series [1], `CC(=O)OC(C)(C)C(=O)Nc1cccc(CO/N=C(/c2ccccc2)c2noc(=O)n2C)n1` [Example 367] registered an Eff. % of 100%. The LogP in series [3] is 3.15 [a].

In series [1], `Cc1ccc(CCOC(=O)Nc2cccc(CO/N=C(/c3ccccc3)c3noc(=O)n3C)n2)cc1` [Example 369] had an Eff. % of 70%. Further, the LogP in series [3] was 4.53 [a].

For the molecule `Cn1c(/C(=N\OCc2cccc(NC(=O)OCC(C)(C)C)n2)c2ccccc2)noc1=O` [Example 372], the Eff. % in series [1] is 100%. Moreover, in series [3], the LogP is 4.36 [a].

In series [1], `Cn1c(/C(=N\OCc2cccc(NC(=O)CCCCCBr)n2)c2ccccc2)noc1=O` [Example 374] came in with an Eff. % of 100%. Also, the LogP in series [3] is 3.85 [a].

`Cc1ccc(CC(=O)Nc2cccc(CO/N=C(/c3ccccc3)c3noc(=O)n3C)n2)cc1` [Example 375] returned an Eff. % in series [1] of 97%. For the same molecule, the LogP in series [3] is 3.85 [a].

In series [1], `Cn1c(/C(=N\OCc2cccc(NC(=O)CCCc3ccccc3)n2)c2ccccc2)noc1=O` [Example 377] displayed an Eff. % of 99%. In addition, the LogP in series [3] was 4.04 [a].

With `Cn1c(/C(=N\OCc2cccc(NC(=O)Cc3ccc4ccccc4c3)n2)c2ccccc2)noc1=O` [Example 381], the Eff. % in series [1] is reported as 75%. Further, the LogP in series [3] was 4.12 [a].

Regarding `Cc1cccc(/C(=N/OCc2cccc(NC(=O)C(C)(C)C)n2)c2noc(=O)n2C)c1` [Example 387], the Eff. % in series [1] is 100%. Further, the log partition coefficient (LogP) in series [3] is 3.85 [a].

Consider `Cn1c(/C(=N\OCc2cccc(NC(=O)C3CCCC3)n2)c2ccccc2)noc1=O` [Example 388], for which the Eff. % in series [1] worked out at 100%. For the same molecule, in series [3], the LogP is 3.62 [a].

Turning to `C=CCCOC(=O)Nc1nc(CO/N=C(/c2ccccc2)c2noc(=O)n2C)cs1` [Example 394], the Eff. % in series [1] worked out at 90%. Besides, the LogP in series [3] was 3.44 [a].

Consider `COc1ccc(C(=NOCc2cccc(NC(=O)OC(C)(C)C)n2)c2noc(=O)n2C)cc1` [Example 396], for which the Eff. % in series [1] is on record as 73%. Besides, the LogP in series [3] is 3.96 [a].

As for `CCn1c(/C(=N\OCc2cccc(NC(=O)CCc3ccccc3)n2)c2ccccc2)noc1=O` [Example 403], the Eff. % in series [1] was found to be 100%. The LogP in series [3] was 4.01 [a].

The molecule `COc1cccc(C(=NOCc2cccc(NC(=O)C(C)(C)C)n2)c2noc(=O)n2C)c1` [Example 407] had an Eff. % in series [1] of 95%. Further, the LogP in series [3] was 3.55 [a].

The values are drawn from patent US9090600B2, “Fungicidal 4-substituted-3-{phenyl[(heterocyclylmethoxy)imino]methyl}-1,2,4-oxadizol-5(4H)-one derivatives” (BAYER INTELLECTUAL PROPERTY GMBH, priority 2011, dated 2015).
